{"source": "patent US8614231B2", "about": "“Immunosuppressor based on the blockage of TCR-Nck interaction” (Consejo Superior de Investigaciones Cientificas, priority 2008, dated 2013)", "key": {"human T lymphocytes [1]": {"system": "human T lymphocytes", "experiment": "Proliferation of human T lymphocytes stimulated with anti-CD3 antibodies (CFSE, flow cytometry)", "type": "cell-based", "details": "for IC50: Homo sapiens, T-lymphocyte, 120 h, PBMNC, 5 days", "method": "For the next round of selection of the compounds resulting from virtual screening with potential for blocking Nck-CD3ε interaction, PBMNC purified from healthy donors were labelled with fluorescence and incubated for 5 days on plates covered with anti-CD3 OKT3 antibodies in the presence of different doses of these compounds. Proliferation of T lymphocytes was evaluated by flow cytometry in accordance with the loss of green fluorescence (CFSE) within the CD8+ population.\n(§1) PBMNCs purified from healthy donors were labelled with CFSE and incubated for 5 days on plates coated with anti-CD3 OKT3 antibody in the presence of various doses of the compounds indicated, among them CBM-1. The proliferation was evaluated by flow cytometry in accordance with the loss of green fluorescence (CFSE) within the CD4+ and CD8+ populations. A parallel experiment was performed on the proliferation of human IL2-dependent lymphoblasts. Purified PBMNC from healthy donors were stimulated with PHA for 48 hours and labelled with CFSE. The were subsequently cultured for 3 days in the presence of 100 IU/ml of human recombinant IL2 in the presence of concentrations of the compounds used, particularly CBM-1."}, "[2]": {"system": "human IL2-dependent lymphoblasts", "experiment": "Proliferation of human IL2-dependent lymphoblasts (IL2R-dependent proliferation)", "type": "cell-based", "details": "at concentrations of 20 μM; 100 IU/ml IL2, 3 days", "method": "as §1"}, "[3]": {"system": "OT-I transgenic mouse primary lymphocytes", "experiment": "IL2 production and antigen-induced proliferation of mouse T lymphocytes", "type": "cell-based", "from_the_text": "Thus, Nck-CD3ε interaction as a molecular target for immunosuppressor development has been validated."}, "human T lymphocytes [4]": {"system": "human T lymphocytes", "experiment": "Cytokine secretion by human T lymphocytes (PBMNC) stimulated with anti-CD3 antibodies", "type": "cell-based", "details": "for IC50: Homo sapiens, T-lymphocyte, supernatant at 72 hours, anti-CD3", "method": "Inhibition by CBM-1 of the secretion of cytokines by human T lymphocytes in response to stimulation with anti-CD3 antibodies. Peripheral blood mononuclear cells (PBMNC) purified from healthy donors were stimulated on plates coated with anti-CD3 OKT3 antibodies in the presence of various doses of CBM-1 for 72 hours. The concentration of the indicated cytokines in the supernatant (IL-10, IFN-γ, and TFN-β) was evaluated by multiparametric flow cytometry (BD cytometric bead array).\nThe effect of CBM-1 on the production of cytokines was measured in an assay in which human PBMNC were stimulated with anti-CD3 antibodies. The supernatant of these cells was collected at 72 hours and several cytokines were simultaneously measured by a flow cytometry assay."}, "[5]": {"system": "C57BL/6 mouse spleen cells", "experiment": "Intracellular IFNγ expression by mouse CD4+ T cells stimulated with anti-CD3 + anti-CD28", "type": "cell-based", "details": "Lymphocyte, anti-CD3 + anti-CD28 48 hours, then brefeldin A 6 hours, read-out: IC50 generation of IFNγ-secreting Th1 lymphocytes", "from_the_text": "Intracellular expression of IFNγ in response to stimulation with a mixture of anti-CD3 and anti-CD28.\nThe cells were first stained with CD4-PE and after fixing and rinsing they were stained with anti-IFNγ antibody."}, "[6]": {"system": "Human Jurkat T lymphocyte cell line", "experiment": "Toxicity by propidium iodide exclusion and flow cytometry, Jurkat", "type": "cell-based", "details": "48 hours, even at the highest dose", "method": "(§2) Human Jurkat T lymphocyte cell line and human Raji lymphoblastoid B cell line were incubated with the indicated concentrations of CBM-1 for 48 hours. The toxicity of the compound was estimated by propidium iodide exclusion and flow cytometry. The two cell lines remained with 100% viability after 48 hours, even at the highest dose of the compound."}, "[7]": {"system": "human Raji lymphoblastoid B cell line", "experiment": "Toxicity by propidium iodide exclusion and flow cytometry, Raji", "type": "cell-based", "details": "48 hours, even at the highest dose", "method": "as §2"}, "SH3.1 domain of Nckα": {"biological_target": "T1, SH3.1 domain of Nckα (Homo sapiens, UniProt P16333)", "T1 construct": "The three-dimensional structure of the SH3.1 domain of Nckα", "experiment": "NMR chemical displacements in the SH3.1 domain on compound binding", "details": "residues Trp41 and Tyr50/Phe53 participate", "method": "Displacements of the amino acid residues in the SH3.1 domain caused by the interaction with compound CBM-1. The lateral chains of the amino acids that changed their position after binding the compound are represented. The changes are consequent to the binding of compound CBM-1 to the pocket visualised in virtual screening.\nThe three-dimensional structure of the SH3.1 domain of Nckα, in the presence and in the absence of peptide 11R085, was determined in parallel (with the collaboration of the laboratory of Professors María Angeles Jiménez and Manuel Rico, of the Instituto de Química-Física Rocasolano, CSIC, Madrid) (FIG. 6). This enabled validation of the prediction of the structural computer model used for virtual screening. In addition, it allowed measurement of the chemical displacements caused to the structure by compound CBM-1 (FIG. 7).\nThe displacements of residues in the SH3.1 domain validate the prediction of the interaction of the SH3.1 domain with CBM-1 at a molecular level and are consistent with the model."}, "T lymphocytes": {"system": "T lymphocytes", "experiment": "Inhibitory action on the activation of T lymphocytes (summary statement)", "type": "cell-based", "details": "both in mice and humans; concentrations as low as", "from_the_text": "It inhibited the production of IFNγ, IL-10 and TNFβ, as well as the generation of human cells that produce IFNγ in response to anti-CD3 and anti-CD28 in human lymphocytes stimulated with anti-CD3 and anti-CD28 antibodies."}, "[8]": {"details": "72 hours, up to concentrations of 30 μM"}}, "note": "“Also recorded” adds a separate entry of the source."}
{"molecule": "c1ccc(C2=C(CN3CCCCC3)C(c3ccccc3)c3ccccc3O2)cc1", "note": "(centres unmarked) [CBM-1]", "values": [{"measurement": "IC50", "setting": "human T lymphocytes [1]; anti-CD3 OKT3, CD4+ population, read-out: IC50 proliferation of CD4+ lymphocytes induced by anti-CD3", "value": 2000, "unit": "nM"}, {"measurement": "IC50", "setting": "human T lymphocytes [1]; anti-CD3 OKT3, CD8+ population, read-out: IC50 proliferation of CD8+ lymphocytes induced by anti-CD3", "value": 3000, "unit": "nM"}, {"measurement": "blocking activity on the proliferation of the lymphocytes (in words)", "setting": "human T lymphocytes [1]; anti-CD3 OKT3, 5 days, compounds from virtual screening", "value": "highest activity and least toxicity; also recorded: best and least toxic"}, {"measurement": "inhibition of the proliferation of human IL2-dependent lymphoblasts", "setting": "[2]", "value": "did not significantly inhibit"}, {"measurement": "proliferation of antigen-dependent mouse T lymphocytes (in words)", "setting": "[3]", "value": "inhibited"}, {"measurement": "release of IL2 (in words)", "setting": "[3]; mouse T lymphocytes", "value": "inhibited"}, {"measurement": "effect on the production of IL5", "setting": "human T lymphocytes [4]; [8]", "value": "did not show any effect; also recorded: no effect"}, {"measurement": "effect on the production of IL6", "setting": "human T lymphocytes [4]; [8]", "value": "did not show any effect; also recorded: no effect"}, {"measurement": "effect on the release of IL1-β", "setting": "human T lymphocytes [4]; 72 hours, various doses", "value": "did not show any effect"}, {"measurement": "IC50", "setting": "human T lymphocytes [4]; read-out: IC50 IFNγ production", "value": 300, "unit": "nM"}, {"measurement": "IC50", "setting": "human T lymphocytes [4]; read-out: IC50 IL10 production", "value": 200, "unit": "nM"}, {"measurement": "IC50", "setting": "human T lymphocytes [4]; read-out: IC50 TNFβ production", "value": 200, "unit": "nM"}, {"measurement": "IC50", "setting": "[5]", "value": 800, "unit": "nM"}, {"measurement": "viability", "setting": "[6]", "value": 100, "unit": "%"}, {"measurement": "viability", "setting": "[7]", "value": 100, "unit": "%"}, {"measurement": "binding to the SH3.1 domain (NMR)", "setting": "SH3.1 domain of Nckα", "value": "binds to a hydrophobic pocket"}, {"measurement": "concentration with inhibitory action on the activation of T lymphocytes", "setting": "T lymphocytes", "value": "≥ 0.1", "unit": "µM"}]}
